This is an account of results in article PMC3496387 (Molecular pharmaceutics, 2009).

The structures appear in SMILES notation. Like-named read-outs stand apart in the source and are kept apart here.

The conditions of data set [1]: n=3.
Data set [2] can be described thus: Stability in rat intestinal. The data set is classed as in vitro ADME. Conditions: rat intestinal perfusate, similar conditions, control compound.
Where [3] appears, read: isotonic buffer pH 1.2, 37°C, * = estimated half lives.
The mark [4] stands for this setting: isotonic buffer pH 4.0, 37°C, * = estimated half lives.
The mark [5] stands for this setting: isotonic buffer pH 6.0, 37°C, * = estimated half lives.

In the case of `CC(OC(=O)c1ccccc1)OC(=O)[C@@H](N)Cc1ccccc1` (stereo partly drawn) [BA-Et-Phe, 1-((S)-2-amino-3-phenylpropanoyloxy) ethyl benzoate], the “Half lives, t1/2” value in data set [1] (setting [3]) is 1732 min; in data set [1] (setting [4]) it was 3465 ^* min; in data set [1] (setting [5]) it was 385 ± 19 min; in data set [1] (isotonic buffer pH 7.4, 37°C), 24 ± 2 min.

Regarding `NC(Cc1ccccc1)C(=O)OCOC(=O)c1ccccc1` (stereo not drawn) [BA-Me-Phe, (2-amino-3-phenylpropanoyloxy) methyl benzoate], the “Half lives, t1/2” value in data set [1] (setting [3]) is reported as 193 min; in data set [1] (setting [4]), 385 min; in data set [1] (setting [5]) it was 2.1 min.

Turning to `CC(OC(=O)Cc1ccccc1)OC(=O)C(N)C(C)C` (stereo not drawn) [PA-Et-Val, 1-(2-phenylacetoxy) ethyl 2-amino-3-methylbutanoate], the “Half lives, t1/2” value in data set [1] (setting [3]) was 11550 ^* min; in data set [1] (setting [4]), 23100 ^* min; in data set [1] (setting [5]), 1732.5 min; in data set [1] (isotonic buffer pH 7.4, 37°C) it was 50 ± 14.8 min.

Turning to `CC(C)C[C@H](NC(=O)[C@H](Cc1ccccc1)NC(=O)CNC(=O)CNC(=O)[C@@H](N)Cc1ccc(O)cc1)C(=O)O` [leu-enkephalin], in data set [2], the “time to complete hydrolysis” value is no more than 1 h.
